Patent publication US12364699B2, “Method of treating hair loss disorders” (Sun Pharmaceutical Industries, Inc., priority 2023, dated 2025)

Legend:
subjects with AA [1] = test: Open-label extension (OLE) studies: safety; format: in vivo, human
Text: (§1) The qualifying clinical trials including the following: 1. NCT03137381; 2. NCT03811912; 3. NCT03941548; 4. NCT04784533; 5. NCT04518995; and 6. NCT04797650 (all available a at https://clinicaltrials.gov).

[2] = Renal impairment study: single dose PK of CTP-543 and metabolites C-21714, C-21717; settings: single 12 mg oral dose of CTP-543; normal renal function N = 8; geometric mean (geometric CV %)
Text: The study enrolled 8 subjects in the normal renal function cohort, and 8 subjects in the moderate impaired renal function cohort.
The primary endpoint of this study was single dose PK exposure parameters: Cmax, AUC(0-Tlast), and AUC(0-∞).
The secondary endpoints of this study were: • Adverse Events, clinical laboratory findings, physical examinations, ECGs, and vital signs. • Other PK parameters, such as, but not limited to: Tmax, λz, t1/2, CL/F, and Vz/F.
(§2) All subjects had samples collected for PK.
PK parameters were determined using non-compartmental analysis (NCA) methods based on individual plasma concentration-time data for all PK analytes.

[3] = system: adult subjects with moderate to severe AA; test: Phase III trial: Hair Satisfaction Patient Reported Outcome (SPRO); format: in vivo, human; settings: for percentage of subjects with a ≥2 point change from baseline on SPRO: 12 mg BID
Text: The SPRO is a single-item questionnaire answered by the subject and designed to measure how satisfied Alopecia Areata subjects are with their hair at the time of the assessment. Subjects answer questions on a scale of 1 to 5, representing “Very satisfied” to “Very dissatisfied.” Satisfaction categories 1-5 of the scale were defined as follows: 1=“Very Satisfied”; 2=“Satisfied”; 3=“Neither Satisfied nor Dissatisfied”; 4=Dissatisfied”; and 5=“Very Dissatisfied”.
The results of the SPRO was analyzed in three different ways: 1) the percentage of responders, 2) the change from baseline, and 3) the percentage of subjects achieving a ≥2.0 point change from baseline.
A Phase III trial was conducted to assess the efficacy and safety of CTP-543 in adult subjects with moderate to severe AA. Approximately 440 adult male and female subjects 18 to 65 years of age, inclusive, with moderate to severe AA participated in the study. Subjects with definitive diagnosis of AA, and at least 50% hair loss, as defined by a SALT score ≥50, who met all of the inclusion criteria and none of the exclusion criteria participated in the study.
The Screening Period lasted up to 28 days prior to initiation of study drug. […] Randomization was stratified by scalp hair loss into 1 of the following 2 categories: 1) partial scalp hair loss (SALT ≥50 and <95), 2) complete or near complete scalp hair loss (SALT ≥95).
The key secondary efficacy endpoints were the percentage of responders (defined as “satisfied” or “very satisfied”) on the Hair Satisfaction Patient Reported Outcome (SPRO) scale at Week 24, 20, 16, 12, and 8.
The Hair Satisfaction Patient Reported Outcome (SPRO) was also determined based on the 5-point SPRO scale from baseline through Week 24 among primary endpoint responders. The subjects that received a SALT score ≤20 at Week 24 in the THRIVE-AA1 and THRIVE-AA2 trials were included in the analysis. […]
The SPRO was evaluated in 3 different ways: the percentage of responders, the change from baseline, and the percentage of subjects achieving a ≥2.0 point change from baseline.

plasma protein = test: Renal impairment study: plasma protein binding of CTP-543; format: in vitro ADME, human; settings: 2 hours post-dose; moderate renal impairment vs matched controls with normal renal function
Text: as §2

subjects with AA [4] = test: Open-label extension (OLE) studies: SALT score; format: in vivo, human; settings: 12 mg BID in OLE, placebo in the earlier studies, 52 weeks
Text: Subjects completing 24 weeks of treatment with […]
as §1
The OLE Efficacy Population is defined as all subjects who received at least one dose of deuruxolitinib and had at least one post-baseline SALT assessment in OLE. The data analyses include subjects' data from the qualifying trial. Missing SALT scores were not imputed. The number of subjects decreases over time due to missing data, patient discontinuations, or subjects not yet at the later timepoints. Any SALT data after a qualifying dose change in the OLE was censored for all figures included here, except those showing the overall treatment sequence. A “qualifying dose change” referred to herein can be placebo in any qualifying trial to any dose of deuruxolitinib in the OLE (includes subjects who switched doses), or any dose of deuruxolitinib in a qualifying trial to any dose of deuruxolitinib in the OLE. Various analyses using SALT scores were conducted to best estimate the overall long-term effect of deuruxolitinib considering the issues with dose changes and decreasing patient numbers over time. “Any Dose” analysis tracks all active subjects over time pooled across the two doses. […]

[2H]C1([2H])C([C@@H](CC#N)n2cc(-c3ncnc4[nH]ccc34)cn2)C([2H])([2H])C([2H])([2H])C1([2H])[2H] [CTP-543, (R)-3-(4-(7H-pyrrolo[2,3-d]pyrimidin-4-yl)-1H-pyrazol-1-yl)-3-(cyclopentyl-2,2,3,3,4,4,5,5-d8) propanenitrile]
number of serious treatment-related TEAEs (subjects with AA [1]; OLE studies): remains low | tolerability (subjects with AA [1]; OLE studies): generally well tolerated | subjects with related thrombotic events (subjects with AA [1]; all at the 12 mg BID dose, following ≥52 weeks of dosing): four | treatment-emergent adverse event findings (subjects with AA [1]; integrated analyses): consistent with the safety profiles observed for other JAK inhibitors | Clast [2]: 0.898 (116.3) ng/mL | SPRO Responders: Yes ([3]; 12 mg BID (N = 127), Week 24, non-missing data): 62 (51.7) n (%) | percentage of subjects with a ≥2 point change from baseline on SPRO ([3]; week 16, non-missing data): 57.4% | percentage of subjects with a ≥2 point change from baseline on SPRO ([3]; week 24, non-missing data): 61.7% | plasma protein binding, difference between cohorts (plasma protein): no meaningful differences | mean SALT score (subjects with AA [4]): 43.0
